“And” between values parts separate entries of the source, which are not always exact repeats. Equal values may be shown once. “Also recorded” adds a separate entry of the source.
Assays:
AbeH [1] = target: T1, AbeH (uncultured bacterium, UniProt F6LWA5); experiment: Quenching of AbeH intrinsic Trp fluorescence upon FAD titration; set-up: species or system uncultured soil actinomycetes; conditions: FAD binding to AbeH, 100 nM AbeH
Protocol: (§1) Intrinsic tryptophan fluorescence spectroscopy was used to measure FAD binding to AbeH and BorH in 20 mM HEPES pH 7.7- and 50 mM sodium citrate. FAD was prepared in the same buffer and its concentration was determined spectrophotometrically as described earlier. Fluorescence experiments were performed as described earlier. FAD binding to apo-AbeH or apo-BorH was performed in duplicate with 100 nM fixed AbeH or BorH with variable FAD concentrations up to 30 and 70 μM, respectively. AbeH/FAD binding was monitored using excitation at 295 nm and emission at 328 nm. BorH/FAD binding was monitored using excitation at 290 nm and emission at 326 nm. Inner filter effect corrected fluorescence intensities were plotted against quenched intrinsic tryptophan fluorescence of AbeH and BorH. Data were fitted by nonlinear regression to eq 1 using GraphPad Prism 8.0.
(§2) Figure S9: FAD binding determined by quenching of BorH and AbeH intrinsic Trp fluorescence.
(§3) A. Variable concentrations of FAD (0-70 µM) were incubated with 100 nM BorH and Trp fluorescence was measured with excitation at 290 nm and emission at 326 nm. […]
(§4) B. Variable concentrations of FAD (0-30 µM) were incubated with 100 nM AbeH and Trp fluorescence was measured […] with excitation at 295 nm and emission at 328 nm. […]

AbeH/Trp = AbeH/Trp (uncultured bacterium, UniProt F6LWA5); experiment: Isothermal titration calorimetry, FAD into AbeH preincubated with Trp; format: binding, uncultured soil actinomycetes; set-up: n (ITC, Table S3) / DH (ΔH, ITC, Table S3) / -TDS (-TΔS, ITC, Table S3) / DG (ΔG, ITC, Table S3): unit of the concentration uncertain
Protocol: ITC experiments were performed using a VP-ITC isothermal titration calorimeter (MicroCal) in 20 mM HEPES pH 7.5, 350 mM NaCl, 1 mM ethylenediamine tetraacetic acid (EDTA) and 15% (v/v) glycerol. Solutions of AbeH, BorH, FAD (Chem-Implex), and Trp (Acros Organics) were prepared in the same buffer and degassed under vacuum at 30 °C for 20 min before loading in the syringe or cell. To analyze formation of binary complexes, AbeH or BorH was placed inside the cell, and ligand (FAD or Trp) was injected. For ternary complex titration, one ligand was preincubated with the macromolecule for 30 min at 30 °C to form binary complexes of AbeH/FAD, AbeH/Trp, BorH/FAD, and BorH/Trp before titrating with the second ligand. To test FADH2 binding to AbeH and BorH, FAD was reduced to FADH2 using sodium dithionite and stored under N2. Formation of FADH2 by sodium dithionite was verified using absorbance and fluorescence spectrophotometry.
ITC experiments were performed with reference power set to 10 μcal/s and Milli-Q water in the reference cell. All experiments were done with a pretitration delay of 20 min, a 5 min interval between injections, and a filter period of 2 s in high feedback gain mode. All experiments were performed at 310 rpm to mix the components in cell and titrant. All other VP-ITC instrumental parameters were set to default settings. Heats of dilution for all titrants were measured by titrating ligand into buffer for binary complex titrations, and by titrating ligand into a solution containing the other ligand but no protein for ternary complex titration.
190 μM FAD (2 μL/1 and 15 μL/29 injections) into 28 μM AbeH preincubated with 16 mM Trp (Figure 4C)
190 μM FAD (2 μL/1 and 15 μL/29 injections) into 28 μM AbeH preincubated with 28 mM Trp (Figure S8)
Titrations were analyzed by manually integrating each injection, subtracting the heat of dilution, and carrying out nonlinear least-squares fit of the calorimetric binding data to a one-site model using Origin 7.0 (Origin Lab). Trp binding experiments were subtracted by point-by-point heat of dilution, and FAD and FADH2 binding experiments were subtracted using the mean heat of the last three injections. For the Trp binding data, n was fixed to 1 based on expected stoichiometry of 1:1 based on FDH crystal structures and as proposed for lower c-value titrations in the literature.[23],[25],[82] The other parameters were not constrained during fitting.

BorH [2] = target: T2, BorH (uncultured bacterium, UniProt M9QSI0); experiment: Quenching of BorH intrinsic Trp fluorescence upon FAD titration; set-up: species or system uncultured soil actinomycetes; conditions: 100 nM BorH; read-out: KD, FAD binding to BorH, BorH intrinsic Trp fluorescence
Protocol: as §1, §2, §3, §4

AbeH [3] = target: T1, AbeH; experiment: Time-course of in vitro Trp chlorination and bromination by AbeH; format: biochemical, uncultured soil actinomycetes
Protocol: Time-course experiments were done using 1.7 μM AbeH, 3.3 μM holo-AbeF, 500 μM Trp, 2.5 mM NADH in 10 mM Na/KPO4 pH 8.2 with either 50 mM NaCl or 100 mM NaBr. Reactions were incubated for 5 min at 37 °C and NADH was added to start the reactions. Aliquots of 100 μL were quenched and analyzed by RP-HPLC at various time points. Unreacted substrate and product concentrations were calculated using peak areas and standard curves of Trp, 5-Cl-Trp, and 5-Br-Trp.
Figure S4: Time-course of in vitro Trp chlorination and bromination by AbeH.
Reaction conditions: 1.7 µM AbeH, 3.3 µM holo-AbeF, 0.5 mM Trp, 2.5 mM NADH, 10 mM Na/KPO4 pH 8.2, and either 50 mM NaCl (A) or 100 mM NaBr (B). Concentration of product formed was calculated from RP-HPLC chromatogram integrated A280 peak areas compared to standard curves of integrated peak areas of known concentrations of 5-Cl-Trp and 5-Br-Trp standards. Experiments were carried out in duplicate. (A) Time course of Trp chlorination by AbeH has chlorination specific activity of 87 µmol min-1 mg-1. (B) Time course of Trp bromination by AbeH has bromination specific activity of 34 µmol min-1 mg-1.
(1 picture or pasted object on this page, not shown here)

BorH [4] = target: T2, BorH; conditions: previously shown; cited from earlier work
[5] = cell AbeH/Trp (16 (unit uncertain))
[6] = cell AbeH/Trp (28 (unit uncertain))

AbeH/Trp, sequence (F6LWA5 entry or part of it): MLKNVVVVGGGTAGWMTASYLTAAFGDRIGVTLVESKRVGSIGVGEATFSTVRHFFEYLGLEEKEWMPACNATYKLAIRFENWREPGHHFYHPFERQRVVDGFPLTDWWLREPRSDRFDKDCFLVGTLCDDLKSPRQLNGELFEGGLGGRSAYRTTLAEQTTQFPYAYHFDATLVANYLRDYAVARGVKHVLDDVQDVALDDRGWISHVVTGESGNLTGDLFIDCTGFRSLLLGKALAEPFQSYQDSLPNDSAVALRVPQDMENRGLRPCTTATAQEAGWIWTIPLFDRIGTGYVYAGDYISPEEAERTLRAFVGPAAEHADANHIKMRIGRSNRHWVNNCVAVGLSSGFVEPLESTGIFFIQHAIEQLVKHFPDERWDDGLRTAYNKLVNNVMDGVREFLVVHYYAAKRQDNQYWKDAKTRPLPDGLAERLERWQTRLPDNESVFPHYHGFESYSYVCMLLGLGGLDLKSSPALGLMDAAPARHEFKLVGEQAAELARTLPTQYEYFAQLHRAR
T1 sequence (F6LWA5 entry or part of it): as above
T2 sequence (M9QSI0 1-529): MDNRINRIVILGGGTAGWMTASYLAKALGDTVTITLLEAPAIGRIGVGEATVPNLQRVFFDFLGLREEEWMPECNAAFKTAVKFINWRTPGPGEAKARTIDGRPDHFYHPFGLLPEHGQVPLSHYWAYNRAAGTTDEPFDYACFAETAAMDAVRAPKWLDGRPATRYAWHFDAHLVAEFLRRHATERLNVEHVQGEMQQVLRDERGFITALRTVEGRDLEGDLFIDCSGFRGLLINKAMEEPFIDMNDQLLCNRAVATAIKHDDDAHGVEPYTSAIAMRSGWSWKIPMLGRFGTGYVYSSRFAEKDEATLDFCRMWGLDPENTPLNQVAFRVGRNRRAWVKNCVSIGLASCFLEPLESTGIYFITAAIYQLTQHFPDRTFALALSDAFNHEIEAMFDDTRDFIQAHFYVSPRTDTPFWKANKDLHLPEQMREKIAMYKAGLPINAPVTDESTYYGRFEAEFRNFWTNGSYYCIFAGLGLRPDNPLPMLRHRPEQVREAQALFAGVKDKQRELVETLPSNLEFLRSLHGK

## Cc1cc2nc3c(=O)[nH]c(=O)nc-3n(C[C@H](O)[C@H](O)[C@H](O)COP(=O)(O)OP(=O)(O)OC[C@H]3O[C@@H](n4cnc5c(N)ncnc54)[C@H](O)[C@@H]3O)c2cc1C [FAD]
AbeH [1]
  Kd: 0.96 µM and 1 µM
AbeH/Trp; Apparent KD, FAD binding to AbeH/Trp, ITC, AbeH preincubated with Trp, depends on the Trp:AbeH molar ratio
  Kd: 6.3 ± 2.4 µM
AbeH/Trp; ITC
  Heat of binding, titration of FAD into AbeH/Trp, in words: endothermic; also recorded: heat being absorbed rather than released
AbeH/Trp; KD, FAD into AbeH/Trp, ITC, experiment of Figure 4C, 28 μM AbeH preincubated with 16 mM Trp
  Kd: 2.1 µM
AbeH/Trp; [5]
  -TDS (-TΔS, ITC, Table S3): -15.1 kcal/mol
  DG (ΔG, ITC, Table S3): -7.8 kcal/mol
  DH (ΔH, ITC, Table S3): 7.3 ± 0.4 kcal/mol
  n (ITC, Table S3): 0.58 ± 0.02
AbeH/Trp; [6]
  -TDS (-TΔS, ITC, Table S3): -13.1 kcal/mol
  DG (ΔG, ITC, Table S3): -7.2 kcal/mol
  DH (ΔH, ITC, Table S3): 5.9 ± 1.6 kcal/mol
  n (ITC, Table S3): 0.6 ± 0.1
BorH [2]
  Kd: 9.1 ± 2.4 µM

## N[C@@H](Cc1c[nH]c2ccccc12)C(=O)O [Tryptophan, L-tryptophan]
AbeH [3]
  Specific activity of AbeH for Trp chlorination relative to Trp bromination: approximately 2.5 ×
AbeH [3]; 1.7 μM AbeH, 500 μM Trp, 50 mM NaCl, 37 °C
  Specific activity of AbeH for chlorination of Trp: 87 μM min^–1 mg^–1
AbeH [3]; 1.7 μM AbeH, 500 μM Trp, 100 mM NaBr, 37 °C
  Specific activity of AbeH for bromination of Trp: 34 μM min^–1 mg^–1
AbeH [3]; Figure S4 A, 0.5 mM Trp, 50 mM NaCl
  AbeH chlorination specific activity: 87 µmol/min/mg
AbeH [3]; Figure S4 B, 0.5 mM Trp, 100 mM NaBr
  AbeH bromination specific activity: 34 µmol/min/mg
BorH [4]
  Halogenation of the substrate by BorH, in words: brominate and chlorinate
